According to patent US20100210533A1, “USE OF UROCORTIN AND CORTICOTROPIN-RELEASING FACTOR AS THERAPEUTIC AGENTS” (priority 2007, published 2010):
No end group written: not given here.

Columns and labels:
HIV-1IIIB = assay: HIV-1 antiviral assay in CEM-SS cells (MTS readout); assay type: cell-based
HCMV strain AD169 = assay: HCMV plaque assay in MRC-5 cells; conditions: for inhibition of HCMV plaque formation as compared to the virus control experiment: 10 micrograms per ml, 7-10 days
spleen cells = assay: Th1/Th2 cytokine profiling assay (Ovalbumin-restimulated spleen cells, CBA kit); assay type: cell-based; conditions: 10 micrograms per ml; spleen cells of Ovalbumin-immunized Balb/c mice, restimulated with Ovalbumin 10 micrograms/ml; 72 hours
[1] = test system: hepatitis B virus (HBV) ayw strain; assay: HBV experimental assay system, HepG2-2.2.15, TaqMan PCR of secreted HBV DNA; assay type: cell-based; conditions: 10 micrograms per ml, six days, HBV DNA by TaqMan PCR
Description: HepG2-2.2.15 is a stable cell line containing the hepatitis B virus (HBV) ayw strain genome (ATCC Cat. No. CRL-11997). Antiviral compounds blocking any late step of viral replication such as transcription, translation, pregenome encapsidation, reverse transcription, particle assembly and release can be identified and characterized using this cell line. In this assay, an active compound will reduce the production of secreted HBV from cells, measured by utilizing real time quantitative PCR (TaqMan) assay to directly and accurately measure HBV DNA copies.
HepG2-2.2.15 cells were plated in 96-well microtiter plates. After 16-24 hours the confluent monolayer of HepG2-2.2.15 cells was washed and the medium was replaced with complete medium containing test peptides—10 micrograms per ml—in duplicate. […] Six days following the initial administration of the peptides, the cell culture supernatants was collected, treated with pronase and DNAse and then used in a real-time quantitative TaqMan PCR assay. The PCR-amplified HBV DNA was detected in real-time by monitoring increases in fluorescence signals that result from the exonucleolytic degradation of a quenched fluorescence probe molecule that hybridizes to the mplified HBV DNA. […] Antiviral activity was calculated from the reduction in HBV DNA levels (% virus control). […]

[2] = test system: Primary Human endothelial cells (HUVEC); assay: Endothelial cell migration assay; assay type: cell-based; conditions: 10 micrograms per ml, 22 hours
RAW 264.7 cells = assay: Phagocytosis assay (Fluorescein-labeled Escherichia coli, flow cytometry); assay type: cell-based, mouse; conditions: 10 micrograms per ml, 30 min preincubation, 60 min ingestion

Compound | antiviral activity of positive control compounds (HIV-1) (HIV-1IIIB) | antiviral activity of positive control compound (HCMV) (HCMV strain AD169; positive control, HCMV AD169) | IFNγ spleen cells; TH1 response (% of control) (spleen cells) | IL-2 spleen cells (% of control) (spleen cells) | IL-4 spleen cells; TH2 response (% of control) (spleen cells) | IL-5 spleen cells; TH2 response (% of control) (spleen cells) | TNF-a spleen cells; TH1 response (% of control) (spleen cells) | inhibition of HBV replication as compared to the virus control infection [1] | inhibition of the tube formation of human endothelial cells (results given under Example 14, Endothelial Cell Migration Assay) [2] | effect (increase) on the phagocytic activity of murine macrophages (RAW 264.7 cells) | inhibition of HCMV plaque formation as compared to the virus control experiment (HCMV strain AD169)
Cc1cn([C@H]2C[C@H](N=[N+]=[N-])[C@@H](CO)O2)c(=O)[nH]c1=O [AZT] | expected levels of antiviral activity | – | – | – | – | – | – | – | – | – | –
Nc1nc(O)c2ncn(COC(CO)CO)c2n1 [Ganciclovir, reference compound] | – | expected levels of antiviral activity | – | – | – | – | – | – | – | – | –
CC(C)(C)NC(=O)[C@@H]1CN(Cc2cccnc2)CCN1C[C@@H](O)C[C@@H](Cc1ccccc1)C(=O)N[C@H]1c2ccccc2C[C@H]1O [indinavir] | expected levels of antiviral activity | – | – | – | – | – | – | – | – | – | –
Asp-Asn-Pro-Ser-Leu-Ser-Ile-Asp-Leu-Thr-Phe-His-Leu-Leu-Arg-Thr-Leu-Leu-Glu-Leu-Ala-Arg-Thr-Gln-Ser-Gln-Arg-Glu-Arg-Ala-Glu-Gln-Asn-Arg- Ile-Ile-Phe-Asp-Ser-Val-NH2 (DNPSLSIDLTFHLLRTLLELARTQSQRERAEQNRIIFDSV-NH2) [Peptide 1] | – | – | 29.0 % of control | 168.1 % of control | 111.6 % of control | 68.0 % of control | 84.8 % of control | 63.0% | 39% | no inhibitory or activating effects | did not inhibit
Ser-Glu-Glu-Pro-Pro-Ile-Ser-Leu-Asp-Leu-Thr-Phe-His-Leu-Leu-Arg-Glu-Val-Leu-Glu-Met-Ala-Arg-Ala-Glu-Gln-Leu-Ala-Gln-Gln-Ala-His-Ser-Asn- Arg-Lys-Leu-Met-Glu-Ile-Ile-NH2 (SEEPPISLDLTFHLLREVLEMARAEQLAQQAHSNRKLMEII-NH2) [Peptide 2] | – | – | 144.1 % of control | 166.5 % of control | 178.1 % of control | 7.0 % of control | 138.1 % of control | 57.2% | did not inhibit | 34.3% | did not inhibit
